Experimental data as given in publication PMC4727946 (The Journal of General Physiology, 2016).
Blank lines part the entries; values can stand above or below the compound they belong to.

Key:
Format in all cases: cell-based
Pannexin1 (Panx1) [1] = biological target: T1, Pannexin1 (Panx1) (Homo sapiens, UniProt Q96RD7); assay: whole-cell patch clamp of Panx1-transfected HEK293 cells, dose response
Pannexin1 (Panx1) [2] = biological target: T1, Pannexin1 (Panx1); assay: whole-cell patch clamp in transfected HEK293 cells
Pannexin1 (Panx1) [3] = biological target: T1, Pannexin1 (Panx1); assay: whole-cell patch clamp in transfected HEK293 cells; remark: listed apart in the source

T1 sequence (Q96RD7 whole entry): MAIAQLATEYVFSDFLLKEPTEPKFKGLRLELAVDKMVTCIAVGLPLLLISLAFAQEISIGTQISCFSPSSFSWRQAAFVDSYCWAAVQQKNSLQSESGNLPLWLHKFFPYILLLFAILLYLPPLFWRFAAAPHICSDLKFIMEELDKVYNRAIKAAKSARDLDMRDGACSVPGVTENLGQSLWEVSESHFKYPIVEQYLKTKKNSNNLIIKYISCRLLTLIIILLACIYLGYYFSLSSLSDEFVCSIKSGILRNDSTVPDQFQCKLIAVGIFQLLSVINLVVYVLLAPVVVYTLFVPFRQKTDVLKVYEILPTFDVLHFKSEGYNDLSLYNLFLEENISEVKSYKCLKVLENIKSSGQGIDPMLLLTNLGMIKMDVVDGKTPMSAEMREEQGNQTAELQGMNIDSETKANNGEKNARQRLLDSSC

IC50 (Pannexin1 (Panx1) [1]): ~2000 nM
SMILES: CC1(C)[C@@H](OC(=O)CCC(=O)O)CC[C@]2(C)[C@H]3C(=O)C=C4[C@@H]5C[C@@](C)(C(=O)O)CC[C@]5(C)CC[C@@]4(C)[C@]3(C)CC[C@@H]12 [carbenoxolone]

SMILES: COc1ccc(Cl)cc1C(=O)NCCc1ccc(S(=O)(=O)NC(=O)NC2CCCCC2)cc1 [glybenclamide]
whole-cell patch clamp in transfected HEK293 cells (150 μM) (Pannexin1 (Panx1) [2]): W74 is essential not only for CBX, but also for the other four Panx1 inhibitors to function

SMILES: CCCN(CCC)S(=O)(=O)c1ccc(C(=O)O)cc1 [probenecid]
whole-cell patch clamp in transfected HEK293 cells (3 mM and 10 mM) (Pannexin1 (Panx1) [3]): suggesting that binding of probenecid trapped Panx1 in a nonresting closed conformation
